Measured values from patent publication US20160251403A1, “PEPTIDE COMBINATIONS AND USES THEREOF IN TREATING DUST MITE ALLERGY” (ALK-ABELLO A/S, priority 2013, published 2016).
No end group written: not given here.

What was measured:
[1] = target: DRB1_0401 (Homo sapiens, UniProt P01903+P01911, A100K/A169T/F76Y/I96L/K127E/L162R/M171V/N62H/P40V/Q125Y/R42H/S133A/S149N/S66Y/V115G/V209L/W38E); experiment: Competitive MHC class II binding assay, DRB1_0401
[2] = target: DRB1_0802 (Homo sapiens, UniProt P01903+P01911, A100R/A103L/A169T/F76Y/H45Y/I96F/K41T/L162R/M171V/P40S/Q125H/Q178H/Q39Y/Q99D/R218S/R42G/S66Y/V115G/W38E); experiment: Competitive MHC class II binding assay, DRB1_0802
[3] = target: DRB4_0101 (Homo sapiens, UniProt P01903+P13762, G164S); experiment: Competitive MHC class II binding assay, DRB4_0101
[4] = target: DRB5_0101 (Homo sapiens, UniProt P01903+Q30154); experiment: Competitive MHC class II binding assay, DRB5_0101
[5] = target: DQA10501-DQB10301 (Homo sapiens, UniProt P01909+P01920); experiment: Competitive MHC class II binding assay, DQA10501-DQB10301
[6] = target: DQA10102-DQB10602; experiment: Competitive MHC class II binding assay, DQA10102-DQB10602; details: read-out: HLA-DQA10102-DQB10602; positive binding at cutoff 1000 nM
[7] = target: DQA10101-DQB10501 (Homo sapiens, UniProt P01909+P01920, A157S/A45G/A70V/C70R/D89V/E106S/E118A/E183D/E77G/F83G/G63E/H151Q/H199R/H252R/H253Q/I129T/I235V/I88M/INS77G/K197Q/L107V/L117V/L119Y/L178F/L71W/L74F/L85Q/L91A/L98M/M46L/N214S/P87R/Q116E/Q256R/Q57E/Q76K/R102G/R240Q/R75S/R78G/S102Y/S185I/S41F/S97I/T103A/T109R/T121G/T122I/T172A/T86R/V148I/V68A/V73E/Y34C/Y58G/Y62H); experiment: Competitive MHC class II binding assay, DQA10101-DQB10501; details: positive binding at cutoff 1000 nM; read-out: HLA-DQA10101-DQB10501
[8] = target: DRB1_0405 (Homo sapiens, UniProt P01903+P01911, A100R/A169T/D86S/F76Y/I96L/K127E/L162R/M171V/N62H/P40V/Q125Y/R42H/S133A/S149N/S66Y/V115G/V209L/W38E); experiment: Competitive MHC class II binding assay, DRB1_0405
[9] = target: T1, DPA10103-DPB10201 (Homo sapiens, UniProt P04440+P20036, A65V/A84D/A85E/K98E); experiment: Competitive MHC class II binding assay, DPA10103-DPB10201
T1 sequence (P20036 29-260): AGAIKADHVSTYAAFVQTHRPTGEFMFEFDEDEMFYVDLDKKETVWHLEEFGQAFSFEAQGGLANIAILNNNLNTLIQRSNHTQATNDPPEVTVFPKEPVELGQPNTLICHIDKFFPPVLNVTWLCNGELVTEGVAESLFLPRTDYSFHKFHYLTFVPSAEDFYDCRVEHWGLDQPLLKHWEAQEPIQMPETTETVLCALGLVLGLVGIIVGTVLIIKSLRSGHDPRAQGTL
T1 sequence (P04440 30-258 A65V/A84D/A85E/K98E): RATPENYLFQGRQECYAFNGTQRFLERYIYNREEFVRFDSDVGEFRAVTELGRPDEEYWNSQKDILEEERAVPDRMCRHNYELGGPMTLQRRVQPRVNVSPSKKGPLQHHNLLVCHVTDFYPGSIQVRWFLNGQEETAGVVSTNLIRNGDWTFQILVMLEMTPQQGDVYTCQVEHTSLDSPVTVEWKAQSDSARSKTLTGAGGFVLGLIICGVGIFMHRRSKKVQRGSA

[10] = target: DQA10501-DQB10201 (Homo sapiens, UniProt P01909+P01920, A45G/A70V/D89A/E106A/E77G/E98D/H199R/L107V/N214S/P84L/P87L/T103K/T109R/T172A/T60S/V78E/V99I/Y58L/Y62S/Y69I/Y79F); experiment: Competitive MHC class II binding assay, DQA10501-DQB10201
[11] = test system: DQA10401-DQB10402; experiment: Competitive MHC class II binding assay, DQA10401-DQB10402; details: for IC50: read-out: HLA-DQA10401-DQB10402, positive binding at cutoff 1000 nM
[12] = target: T2, DPA10103-DPB10301 (Homo sapiens, UniProt P04440+P20036, A65V/A84D/A85E/E86D/F38Y/G113D/G114E/G40L/I94L/L37V/M105V/M116V/P115A/R125K/T199I); experiment: Competitive MHC class II binding assay, DPA10103-DPB10301
T2 sequence (P20036 29-260): T1 sequence (P20036 29-260)
T2 sequence (P04440 30-258 L37V/F38Y/G40L/A65V/A84D/A85E/E86D/I94L/M105V/G113D/G114E/P115A/M116V/R125K/T199I/V234M): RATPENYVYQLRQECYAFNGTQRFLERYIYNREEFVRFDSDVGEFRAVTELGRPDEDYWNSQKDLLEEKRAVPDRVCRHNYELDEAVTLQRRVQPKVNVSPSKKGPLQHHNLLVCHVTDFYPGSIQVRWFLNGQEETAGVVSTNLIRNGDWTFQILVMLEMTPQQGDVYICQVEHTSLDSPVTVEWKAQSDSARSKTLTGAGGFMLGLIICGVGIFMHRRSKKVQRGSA

| Molecule | IC50 [1] [nM] | IC50 [2] [nM] | IC50 [3] [nM] | IC50 [4] [nM] | IC50 [5] [nM] | IC50 [6] [nM] | IC50 [7] [nM] | IC50 [8] [nM] | IC50 [9] [nM] | IC50 [10] [nM] | IC50 [11] [nM] | IC50 [12] [nM] | binding to HLA Class II allele DQA10501-DQB10201 ([10]; as shown in Table 16a) | binding to HLA Class II allele DQA10401-DQB10402 ([11]; as shown in Table 16a) |
| --- | --- | --- | --- | --- | --- | --- | --- | --- | --- | --- | --- | --- | --- | --- |
| LVGDNGVLASAIATHAKIRD [pep-110] | < 1000 | < 1000 | < 1000 | < 1000 | < 1000 | < 1000 | – | – | – | – | – | – | – | – |
| CC[C@H](C)[C@H](NC(=O)CNC(=O)[C@@H](NC(=O)[C@@H](NC(=O)[C@@H](NC(=O)[C@H](C)NC(=O)[C@@H](NC(=O)[C@H](C)NC(=O)[C@H](CO)NC(=O)[C@H](Cc1c[nH]cn1)NC(=O)[C@@H](NC(=O)[C@H](CCC(N)=O)NC(=O)[C@H](C)NC(=O)[C@H](CC(C)C)NC(=O)[C@H](C)NC(=O)[C@H](CCC(=O)O)NC(=O)[C@@H](N)CCCNC(=N)N)[C@@H](C)O)[C@@H](C)CC)C(C)C)[C@@H](C)CC)[C@@H](C)CC)C(=O)N[C@@H](CCCCN)C(=O)N[C@@H](CC(=O)O)C(=O)N[C@@H](CC(C)C)C(=O)N[C@@H](CC(=O)O)C(=O)N[C@@H](C)C(=O)O [pep-130] | – | < 1000 | < 1000 | < 1000 | < 1000 | < 1000 | < 1000 | < 1000 | < 1000 | < 1000 | – | < 1000 | – | – |
| GSGSSWAFSGVAATESAYLA [pep-044] | < 1000 | – | – | – | < 1000 | < 1000 | < 1000 | < 1000 | – | < 1000 | < 1000 | < 1000 | – | – |
| LVKGQQYDIKYTWNVPKIAPK [pep-131] | – | < 1000 | – | < 1000 | – | – | – | – | < 1000 | – | – | < 1000 | – | – |

More lines, main results first:

| IC50 [1] [nM] | IC50 [2] [nM] | IC50 [3] [nM] | IC50 [4] [nM] | IC50 [5] [nM] | IC50 [6] [nM] | IC50 [7] [nM] | IC50 [8] [nM] | IC50 [9] [nM] | IC50 [10] [nM] | IC50 [11] [nM] | IC50 [12] [nM] | Molecule | binding to HLA Class II allele DQA10501-DQB10201 ([10]; as shown in Table 16a) | binding to HLA Class II allele DQA10401-DQB10402 ([11]; as shown in Table 16a) |
| --- | --- | --- | --- | --- | --- | --- | --- | --- | --- | --- | --- | --- | --- | --- |
| < 1000 | < 1000 | < 1000 | – | < 1000 | < 1000 | < 1000 | < 1000 | < 1000 | < 1000 | < 1000 | – | DNGYGYFAANIDLMMIEE [pep-010] | binds to at least the same alleles as peptide 041 | binds to at least the same alleles as peptide 041 |
| < 1000 | < 1000 | < 1000 | – | < 1000 | < 1000 | < 1000 | < 1000 | – | < 1000 | – | < 1000 | HAVNIVGYSNAQGVDYWIVR [pep-058] | – | – |
